# Patent publication US10537549B2, “Dihydroisoxazole compound for use in controlling sea lice” (Elanco Tiergesundheit AG, priority 2016, dated 2020)
# Columns and labels:
# [1] = tested on: Lepeophtheirus Salmonis at Copepodid Stage; assay: Activity in vitro against Lepeophtheirus salmonis at copepodid stage; conditions: 1 hour contact, then 48 h in untreated sea water
# Method: Stir a mixture of 3-[(5S)-5-(3,4,5-trichlorophenyl)-5-(trifluoromethyl)-4H-isoxazol-3-yl]-4,5,6,7-tetrahydro-2-benzothiophene-1-carboxylic acid (15.00 g, 30.08 mmol), 2-amino-N-prop-2-ynyl-acetamide (4.90 g, 33.09 mmol, HCl), 1-[bis(dimethylamino)methylene]-1H-1,2,3-triazolo[4,5-b]pyridinium 3-oxid hexafluorophosphate (13.72 g, 36.10 mmol) and N,N-diisopropylethylamine (11.66 g, 90.24 mmol) in dichloromethane (500 mL) at 25° C. for 12 hours. Use thin layer chromatography (petroleum ether:ethyl acetate=3:1, Rf=0.30) to show the reaction progress. Dilute the mixture in water (500 mL) and extract with dichloromethane (500 mL×3). Wash the organic layer with brine (500 mL), dry over sodium sulfate, filter and concentrate under reduced pressure to dryness. […]
# [2] = tested on: Lepeophtheirus Salmonis (copepodids, MERL resistant strain IoA-01) on Atlantic Salmon; assay: Activity in vivo against Lepeophtheirus salmonis on Atlantic Salmon using in-feed application; conditions: in-feed 5 mg/kg/day for 7 days
# Method: Activity In Vivo Against Lepeophtheirus Salmonis on Atlantic Salmon Using in-Feed Application
# 60 Salmon (Atlantic Salmon, S. salar) of average weight 306.5 g are treated with medicated pellets containing the compound of Example 1 (test compound) at a dose of 5 mg/kg/day during 7 consecutive days. The medicated pellets are prepared by dry coating commercially available fish feed pellets with pre-mix containing the test compound to reach a content of […] test compound in the fish feed, sealing with 1% fish oil and administering at a 1% feeding rate. The treatment is carried out in sea water. After treatment, the fish are challenged with copepodids (the MERL resistant strain IoA-01) on 35, 100 and 150 days post-treatment. During the study the water temperature varies between 7 and 10° C. Fish weight and sea louse numbers are assessed 42, 107 and 157 days post-treatment. Counts are conducted on 30 fish at each sampling occasion.
# Efficacy is determined by comparison with a negative control (placebo) group.
# Efficacy is calculated using the formula: % Efficacy=100−(100×mean of treatment group/mean of control).
# All fish are anaesthetized with 2-phenoxy-ethanol and examined for louse settlement under a dissecting microscope. After counting, fish are returned to the tanks.
compound,measurement,setting,value
"C#CCNC(=O)CNC(=O)c1sc(C2=NO[C@@](c3cc(Cl)c(Cl)c(Cl)c3)(C(F)(F)F)C2)c2c1CCCC2 [Example 1, N-[2-oxo-2-(prop-2-ynylamino)ethyl]-3-[(5S)-5-(3,4,5-trichlorophenyl)-5-(trifluoromethyl)-4H-isoxazol-3-yl]-4,5,6,7-tetrahydro-2-benzothiophene-1-carboxamide]",efficacy (no copepodid moves over a period of 80 seconds),[1]; 0.5 ng/ml sea water,100%
same,minimal effective dose (MED): dose showing 100% efficacy,[1]; serial dilution,≤ 0.5 ng/ml sea water
same,% Efficacy vs placebo group (sea louse counts),[2]; challenge 35 days post treatment (counts at 42 days),100%
same,% Efficacy vs placebo group (sea louse counts),[2]; challenge 100 days post treatment (counts at 107 days),100%
same,% Efficacy vs placebo group (sea louse counts),[2]; challenge 150 days post treatment (counts at 157 days),100%
